Test results from patent US20250205268A1, “TREATMENT OF VIRUSES WITH ANTIVIRAL NUCLEOSIDES” (priority 2021, published 2025).
Where two headings read alike, the source gives them in different places.

Key:
SARS-CoV-2 [1] = assay type: in vivo
[2] = Phase 1 study
[3] = assay type: in vivo, human; conditions: adults; age, sex, body size, food, mild-to-moderate renal or mild hepatic impairment
Protocol: A population pharmacokinetic (popPK) analysis for Compound A exposure was conducted using 4202 NHC plasma concentrations collected in 1207 individuals from a phase 1 study in healthy participants, a phase 2a study in non-hospitalized participants with COVID-19, a Phase 2 study in hospitalized participants with COVID-19, and a Phase 2/3 study in non-hospitalized participants with COVID-19. All studies were randomized, double-blind, placebo-controlled studies of safety, tolerability, and PK of Compound A after oral administration.

SARS-CoV-2 RNA = assay type: in vivo; conditions: for SARS-CoV-2 RNA titer, mean / SARS-CoV-2 RNA titer, mean change from baseline: interim
[4] = assay type: in vivo; conditions: nonclinical studies
SARS-CoV-2 [5] = test system: SARS-CoV-2
[6] = test system: infectious SARS-CoV-2 virus; assay type: in vivo
[7] = Part 2 interim, post-hoc sensitivity analysis, MITT
[8] = baseline RNA titer >10^6 copies/ml, Day 3
[9] = baseline RNA titer >10^6 copies/ml, Day 10
[10] = baseline RNA titer >10^6 copies/ml, Day 15
[11] = baseline RNA titer >10^6 copies/ml, Day 29
[12] = baseline RNA titer >10^6 copies/ml, EOT (Day 5)
[13] = baseline RNA titer ≤10^6 copies/ml, Day 3
[14] = baseline RNA titer ≤10^6 copies/ml, Day 10
[15] = baseline RNA titer ≤10^6 copies/ml, Day 15
[16] = baseline RNA titer ≤10^6 copies/ml, Day 29
[17] = baseline RNA titer ≤10^6 copies/ml, EOT (Day 5)

SMILES: CC(C)C(=O)OC[C@H]1O[C@@H](n2ccc(NO)nc2=O)[C@H](O)[C@@H]1O [Compound A, {(2R,3S,4R,5R)-3,4-dihydroxy-5-[4-(hydroxyimino)-2-oxo-3,4-dihydropyrimidin-1 (2H)-yl]oxolan-2-yl}methyl 2-methylpropanoate]
- COVID-19-related hospitalizations and/or deaths through Day 29, n (%) (SARS-CoV-2 [1]; [7]): 25 (6.5) n (%)
- Unadjusted difference vs placebo in COVID-19-related hospitalizations and/or deaths (SARS-CoV-2 [1]; [7]): −6.8
- Adjusted difference in rates % (95% CI) vs placebo in COVID-19-related hospitalizations and/or deaths (SARS-CoV-2 [1]; Part 2 interim, post-hoc sensitivity analysis, MITT, Miettinen & Nurminen): −6.8 (−11.1, −2.6) %
- Covid-19 signs and symptoms versus placebo (SARS-CoV-2 [1]; final): sustained abatement or resolution was more likely
- deaths reported through day 29 (SARS-CoV-2 [1]; final): One
- 29-day all-cause mortality (SARS-CoV-2 [1]; final all-randomized MITT): 0.1%
- difference vs placebo in hospitalization or death through day 29 (SARS-CoV-2 [1]; final all-randomized MITT): −3.0 percentage points
- hazard ratio for hospitalization or death through day 29 (SARS-CoV-2 [1]; final all-randomized MITT): 0.69
- rate of hospitalization or death through day 29 lower than placebo (time-to-event analysis) (SARS-CoV-2 [1]; final all-randomized MITT): approximately 31%
- participants hospitalized or died through day 29 (SARS-CoV-2 [1]; final all-randomized MITT (48 of 709), 800 mg twice daily 5 days): 6.8%
- risk of hospitalization or death through day 29 lower than placebo, adjusted for participant sex (SARS-CoV-2 [1]; final, post hoc analysis): 2.8 percentage points
- difference vs placebo in Covid-19-related hospitalizations or deaths (SARS-CoV-2 [1]; final, prespecified supporting analysis): −2.8 percentage points
- participants with Covid-19-related hospitalizations or deaths (SARS-CoV-2 [1]; final, prespecified supporting analysis (45 of 709)): 6.3%
- risk of death lower than with placebo (SARS-CoV-2 [1]; final, through day 29): 89%
- hematological laboratory tests [2]: no clinically significant abnormalities
- liver parameters ([2]; any dose): No clinically significant abnormalities in liver parameters
- serum lipase ([2]; at least 3 days after last dose, not dose related): Transient elevations of serum lipase
- need for dose adjustment [3]: without dose adjustment
- reductions in viral load from baseline versus placebo (SARS-CoV-2 RNA; Part 2 interim analysis): significantly greater reductions in viral load from baseline at Days 3 and 5 than placebo
- reductions from baseline in mean viral load versus placebo (SARS-CoV-2 RNA; final all-randomized analysis, days 3, 5 (end-of-treatment visit), and 10): greater reductions from baseline in mean viral load than placebo
- SARS-CoV-2 RNA titer, mean (SARS-CoV-2 RNA; MITT, Baseline): 6.85 log^10 copies/ml
- SARS-CoV-2 RNA titer, mean (SARS-CoV-2 RNA; MITT, Day 3): 5.82 log^10 copies/ml
- SARS-CoV-2 RNA titer, mean change from baseline (SARS-CoV-2 RNA; MITT, Day 3): −1.04 log^10 copies/ml
- SARS-CoV-2 RNA titer, mean (SARS-CoV-2 RNA; MITT, Day 10): 3.70 log^10 copies/ml
- SARS-CoV-2 RNA titer, mean change from baseline (SARS-CoV-2 RNA; MITT, Day 10): −3.18 log^10 copies/ml
- SARS-CoV-2 RNA titer, mean (SARS-CoV-2 RNA; MITT, Day 15): 3.20 log^10 copies/ml
- SARS-CoV-2 RNA titer, mean change from baseline (SARS-CoV-2 RNA; MITT, Day 15): −3.69 log^10 copies/ml
- SARS-CoV-2 RNA titer, mean (SARS-CoV-2 RNA; MITT, Day 29): 2.90 log^10 copies/ml
- SARS-CoV-2 RNA titer, mean change from baseline (SARS-CoV-2 RNA; MITT, Day 29): −4.08 log^10 copies/ml
- SARS-CoV-2 RNA titer, mean (SARS-CoV-2 RNA; MITT, EOT (Day 5)): 4.80 log^10 copies/ml
- SARS-CoV-2 RNA titer, mean change from baseline (SARS-CoV-2 RNA; MITT, EOT (Day 5)): −2.09 log^10 copies/ml
- SARS-CoV-2 RNA titer, mean (SARS-CoV-2 RNA; baseline RNA titer >10^6 copies/ml, Baseline): 7.71 log^10 copies/ml
- SARS-CoV-2 RNA titer, mean (SARS-CoV-2 RNA; [8]): 6.56 log^10 copies/ml
- SARS-CoV-2 RNA titer, mean change from baseline (SARS-CoV-2 RNA; [8]): −1.17 log^10 copies/ml
- SARS-CoV-2 RNA titer, mean (SARS-CoV-2 RNA; [9]): 3.94 log^10 copies/ml
- SARS-CoV-2 RNA titer, mean change from baseline (SARS-CoV-2 RNA; [9]): −3.79 log^10 copies/ml
- SARS-CoV-2 RNA titer, mean (SARS-CoV-2 RNA; [10]): 3.26 log^10 copies/ml
- SARS-CoV-2 RNA titer, mean change from baseline (SARS-CoV-2 RNA; [10]): −4.47 log^10 copies/ml
- SARS-CoV-2 RNA titer, mean (SARS-CoV-2 RNA; [11]): 2.93 log^10 copies/ml
- SARS-CoV-2 RNA titer, mean change from baseline (SARS-CoV-2 RNA; [11]): −4.87 log^10 copies/ml
- SARS-CoV-2 RNA titer, mean (SARS-CoV-2 RNA; [12]): 5.25 log^10 copies/ml
- SARS-CoV-2 RNA titer, mean change from baseline (SARS-CoV-2 RNA; [12]): −2.49 log^10 copies/ml
- SARS-CoV-2 RNA titer, mean (SARS-CoV-2 RNA; baseline RNA titer ≤10^6 copies/ml, Baseline): 4.58 log^10 copies/ml
- SARS-CoV-2 RNA titer, mean (SARS-CoV-2 RNA; [13]): 3.88 log^10 copies/ml
- SARS-CoV-2 RNA titer, mean change from baseline (SARS-CoV-2 RNA; [13]): −0.67 log^10 copies/ml
- SARS-CoV-2 RNA titer, mean (SARS-CoV-2 RNA; [14]): 3.05 log^10 copies/ml
- SARS-CoV-2 RNA titer, mean change from baseline (SARS-CoV-2 RNA; [14]): −1.49 log^10 copies/ml
- SARS-CoV-2 RNA titer, mean (SARS-CoV-2 RNA; [15]): 3.01 log^10 copies/ml
- SARS-CoV-2 RNA titer, mean change from baseline (SARS-CoV-2 RNA; [15]): −1.51 log^10 copies/ml
- SARS-CoV-2 RNA titer, mean (SARS-CoV-2 RNA; [16]): 2.81 log^10 copies/ml
- SARS-CoV-2 RNA titer, mean change from baseline (SARS-CoV-2 RNA; [16]): −1.76 log^10 copies/ml
- SARS-CoV-2 RNA titer, mean (SARS-CoV-2 RNA; [17]): 3.56 log^10 copies/ml
- SARS-CoV-2 RNA titer, mean change from baseline (SARS-CoV-2 RNA; [17]): −1.00 log^10 copies/ml
- pancreatic toxicity (pathology changes in the pancreas) [4]: No test-article related pathology changes in the pancreas
- tolerability (SARS-CoV-2 [5]; 5-day course up to 800 mg twice daily): well tolerated
- Median time to sustained recovery (SARS-CoV-2 [5]; all arms, hospitalized): 9 days
- day 29 recovery rates (SARS-CoV-2 [5]; all arms, hospitalized): 81.5%-85.2%
- hematologic toxicity based on prespecified adverse events (SARS-CoV-2 [5]; all doses): no evidence of hematologic toxicity
- clinical benefit (SARS-CoV-2 [5]; hospitalized patients with COVID-19): clinical benefit was not observed
- participants with undetectable SARS-CoV-2 RNA at day 10, more than placebo (SARS-CoV-2 [5]; participants with ≤5 days since sign/symptom onset): 14.3%-36.4%
- Percentage of participants positive for infectious SARS-CoV-2 virus ([6]; 200 mg twice daily 5 days, Day 1): (50.0) %
- Percentage of participants positive for infectious SARS-CoV-2 virus ([6]; 200 mg twice daily 5 days, Day 3): (18.2) %
- Percentage of participants positive for infectious SARS-CoV-2 virus ([6]; 200 mg twice daily 5 days, Day 5): (4.5) %
- Percentage of participants positive for infectious SARS-CoV-2 virus ([6]; 400 mg twice daily 5 days, Day 1): (41.9) %
- Percentage of participants positive for infectious SARS-CoV-2 virus ([6]; 400 mg twice daily 5 days, Day 3): (11.6) %
- Percentage of participants positive for infectious SARS-CoV-2 virus ([6]; 800 mg twice daily 5 days, Day 1): (38.5) %
